The text below walks through data of PMC4434089 (Biotechnology, Biotechnological Equipment, 2014).

Like-named read-outs stand apart in the source and are kept apart here. Marks after values point to notes of the source that are not given here.

Data set [1] concerns amylin-mediated cytotoxicity. More on the design: method as in PMID 20093026. As to conditions: cited from earlier work.
The next data set concerns amylin. As to the kind of experiment: NTA of amylin aggregation, alone or with amylin derivatives. As to conditions: for implied effect on fibrillogenesis of amylin: NTA compared with previously published reports; for Concentration of aggregates 100–150 nm, 10 min / Concentration of aggregates 200–300 nm, 10 min / Concentration of aggregates 150–200 nm, 10 min / Concentration of aggregates 100–150 nm, 24 h / Concentration of aggregates 200–300 nm, 24 h / Concentration of aggregates 150–200 nm, 24 h: 37 °C, amylin 50 μmol L^−1 alone (A) or with 250 μmol L^−1 derivative, pH 7.4, duplicate; for Concentration of aggregates 100–150 nm, 10 min: 10 mmol L^−1 sodium phosphate, 50 mmol L^−1 NaCl; for Concentration of aggregates 100–150 nm, 10 min / Concentration of aggregates 150–200 nm, 10 min: p < 0.05 less than A: n1, n5, m5; for Concentration of aggregates 200–300 nm, 10 min: p < 0.05 less than A: n1, n3, n5, m1, m2, m3, m4, m5; for Concentration of aggregates 100–150 nm, 24 h: p < 0.05 less than A: n1, n2, m5, significantly more: m2; for Concentration of aggregates 200–300 nm, 24 h: p < 0.05 less than A: n1, n2, n3, n4, n5, m5; for Concentration of aggregates 150–200 nm, 24 h: p < 0.05 less than A: n1, n2, n5, m5; for number of 200–300 nm aggregates at 24 h vs amylin only: amylin:derivative 50:250 μmol L^−1, p < 0.05. It is filed as biochemical, human. On the procedure:
NTA measurements were performed with a NanoSight LM20 instrument (NanoSight, United Kingdom) equipped with a 640 nm laser and a temperature controlled sample chamber. […] The sample temperature was maintained at 37 °C for the entire duration of the experiment. These experimental conditions were similar to that used for a previously reported cytotoxicity experiment,[73] thus allowing correlation of results obtained from the two techniques. […] Once again, samples were maintained at 37 °C and 60 s video footage were recorded every 10 min for the first hour and then at 24 h. All videos were captured with the single shutter and gain modes. Analysis was performed using NanoSight NTA version 2.2 software with a viscosity setting of 0.70.

The next data set deals with full length amylin. Also on record: method as in 2 sources, one per row (each row's own in cited_ref): ref 58 = [58]; PMID 14565847; doi:10.1042/BJ20030852; Jaikaran E Nilsson MR Clark A Biochem J. 2004 377 709 716 14565847 10.1042/BJ20030852 PMC1223903 ||| ref 68, 93 = [68]; PMID 12054816; doi:10.1016/S0022-2836(02)00164-X; Scrocchi LA Chen Y Waschuk S Wang F Cheung S Darabie AA McLaurin J Fraser PE J Mol Biol. 2002 318 697 706 12054816 10.1016/S0022-2836(02)00164-X || [93]; PMID 12648568; doi:10.1016/s1047-8477(02)00630-5; Scrocchi LA Ha K Chen Y Wu L Wang F Fraser PE J Struct Biol. 2003 141 218 227 http://dx.doi.org/10.1016/s1047-8477(02)00630-5 12648568 10.1016/s1047-8477(02)00630-5. As to conditions: cited from earlier work.

For data set [2], the system named is sensor chip-bound biotinylated amylin. More on the design: method as in PMID 14565847. As to conditions: insulin over sensor chip-bound biotinylated amylin; cited from earlier work.
The test system of data set [3] is Aβ. As to conditions: cited from earlier work. The source says:
According to a model developed by Petkova et al.,[81] the 12-21 and 30-40 regions of the Aβ peptide form the β-she ...

Data set [4] relates to Aβ. As to conditions: SPR, cited from earlier work. The text has this:
This was further supported by a recent SPR-based Aβ study that determined a ka of 0.01 complexes per second for Aβ association following first-order kinetics, whilst the kd wa ...

Take NFGAIL [n4]: the “reduction of amylin-mediated cytotoxicity” value in data set [1] is listed as “more than 40%”. Also, the “implied effect on fibrillogenesis of amylin” value in the data set on amylin was “increase fibrillogenesis of amylin to an aggregate that is larger than 1000 nm”. In addition, in the data set with amylin (NTA, 10 min), the “Concentration of aggregates 100–150 nm, 10 min” value is 3.8 ×10^7 aggregates/mL; the “Concentration of aggregates 200–300 nm, 10 min” value is 5.1 ×10^7 aggregates/mL; the “Concentration of aggregates 150–200 nm, 10 min” value is listed as 2.3 ×10^7 aggregates/mL. Further, the “concentrations of 100–150, […]–200 and 200–300 nm aggregates at 10 min vs amylin only” value in the data set on amylin (NTA, 10 min, amylin:derivative 50:250 μmol L^−1, unpaired t-test) was “not significantly different”. In the data set on amylin (NTA), the “Concentration of aggregates 100–150 nm, 24 h” value is listed as 1.7 ×10^7 aggregates/mL; the “Concentration of aggregates 200–300 nm, 24 h” value is recorded as 1.7* ×10^7 aggregates/mL; the “Concentration of aggregates 150–200 nm, 24 h” value is recorded as 1.8 ×10^7 aggregates/mL; the “number of 200–300 nm aggregates at 24 h vs amylin only” value is “significantly lower than in samples containing amylin only”. The “fibril formation of full length amylin in presence of derivative” value in the data set on full length amylin is “fibril formation of full length amylin was enhanced”.
As to “insulin: insulin, binding to sensor chip-bound biotinylated amylin”, the “response change during binding to biotinylated amylin” value in data set [2] was 15 RUs. The “effect on fibril formation” value in the data set on full length amylin is listed as “inhibit fibril formation”.
FLVHSS [n3]: in data set [1], the “reduction of amylin-mediated cytotoxicity” value is “more than 40%”. In addition, the “implied effect on fibrillogenesis of amylin” value in the data set with amylin is “increase fibrillogenesis of amylin to an aggregate that is larger than 1000 nm”. Besides, in the data set on amylin (NTA, 10 min), the “Concentration of aggregates 100–150 nm, 10 min” value is on record as 2.0 ×10^7 aggregates/mL; the “Concentration of aggregates 200–300 nm, 10 min” value is given as 1.4* ×10^7 aggregates/mL; the “Concentration of aggregates 150–200 nm, 10 min” value is 1.2 ×10^7 aggregates/mL. For the same substance, in the data set with amylin (NTA), the “Concentration of aggregates 100–150 nm, 24 h” value is on record as 3.4 ×10^7 aggregates/mL; the “Concentration of aggregates 200–300 nm, 24 h” value was 1.9* ×10^7 aggregates/mL; the “Concentration of aggregates 150–200 nm, 24 h” value is listed as 2.1 ×10^7 aggregates/mL; the “number of 200–300 nm aggregates at 24 h vs amylin only” value was “significantly lower than in samples containing amylin only”. Besides, the “effect on amylin aggregation over 24 h” value in the data set on amylin (NTA, all size ranges, amylin:derivative 50:250 μmol L^−1, vs amylin only) was “small amount of aggregates of all size ranges which increases only marginally over 24 h”. In the data set on full length amylin, the “fibril formation of full length amylin in presence of derivative” value was “fibril formation of full length amylin was enhanced”.
As for “Aβ1–40: amyloid beta; SPR-derived kinetics were generated using the 1–40 form of Aβ”, the “aggregation rate compared with 1–42 form of Aβ” value in the data set with Aβ [3] is listed as “aggregate much more slowly than the 1–42 form of Aβ”. The Aβ association rate in the data set with Aβ [4] (conditions similar to present study) is listed as 0.01 complexes per second. The Aβ dissociation kd was 0.00223 s⁻¹ with Aβ [4] (global fit, first-order kinetic model) and 0.00092 s⁻¹ with Aβ [4] (printed spread ± 1.3 × 10^−4 s^−1). Further, the figures for the Aβ dissociation time with Aβ [4] (ref 39 (by order of citation)) and with Aβ [4] (ref 80 (by order of citation)) were 7.5 min and 18 min, respectively.
